target: T1, recombinant GSK3β enzyme (human GSK3β) (Homo sapiens, UniProt P49841); experiment: Measurement of GSK3β inhibitory activity; assay type: biochemical; conditions: glycogen synthase peptide substrate, Kinase Glo luminescence, read-out: IC50 (concentration of test compound needed for 50% inhibition of luminescent intensity), GSK3β inhibitory activity
T1 construct: FLAG (N); made in house; host or cells: Sf-21 insect cells, recombinant baculovirus (pFASTBAC1 / BAC-TO-BAC)
Text: Human GSK3β gene was cloned by a PCR method using a primer set:
prepared using human brain cDNA (Clontech; trade name: QUICK-Clone cDNA) as a template and in reference to the base sequence of GSK3β gene registered in GenBank under Accession Number NM_002093.
PCR was done according to the protocol attached to KOD plus DNA polymerase (Toyo Boseki Kabushiki Kaisha). The obtained PCR product was electrophoresed on agarose gel (1%), and 1.2 kb of DNA fragment including GSK3β gene was collected from the gel and then digested with restriction enzymes EcoR I and Sal I. The restriction enzyme-treated DNA was electrophoresed on agarose gel (1%). The obtained DNA fragment was collected, and ligated to the plasmid pFASTBAC1 (Invitrogen), which had been digested with restriction enzyme EcoR I and Sal I, to produce expression plasmid pFB-GSK3B. The base sequence of insertion fragment was confirmed to find that it corresponded to the objective sequence. In addition, virus stock BAC-GSK3B of recombinant Baculovirus was prepared using BAC-TO-BAC Baculovirus Expression System (Invitrogen).
Sf-21 cells (Invitrogen) were seeded on Sf-900 II SFM medium (Invitrogen)(150 ml) containing 10% fetal calf serum at 1×10^6 cells/ml, and cultured at 27° C. for 24 hr. The virus stock […] obtained above of recombinant Baculovirus was added by 150 μl to the obtained culture medium, and the cells were cultured for another 60 hr. The culture medium was centrifuged (3000 rpm, 10 min) to separate the cells, and the cells were washed once with PBS. The cells were suspended in 10 ml of cell lysis buffer (25 mM HEPES (pH 7.5), 1% Triton X, 130 mM sodium chloride, 1 mM EDTA, 1 mM Dithiothreitol, 25 mM β-glycerophosphate, Protease inhibitor Complete (Boehringer), 1 mM Sodium orthovanadate), treated 4 times using a homogenizer (POLYTRON) at 20000 rpm for 30 sec to disrupt the cells. The disrupted solution of cells was centrifuged (40000 rpm, 45 min.), and GSK3β was purified from the obtained supernatant using Anti-FLAG M2 Affinity Gel (Sigma Ltd.).
10 μl of ATP solution (2.5 μM ATP) was added to the obtained mixture, and the mixture was reacted at room temperature for 30 min. Kinase Glo Reagent (Promega) (50 μl) was added to the reaction solution to stop the reaction. After reaction at room temperature for 10 min, the luminescent intensity was measured using ARVO multilabel counter (PerkinElmer Life Sciences). The concentrations of the test compounds needed for 50% inhibition of luminescent intensity (IC50 value) were calculated by PRISM 3.0 (GraphPad Software).

T1 sequence (P49841 whole entry): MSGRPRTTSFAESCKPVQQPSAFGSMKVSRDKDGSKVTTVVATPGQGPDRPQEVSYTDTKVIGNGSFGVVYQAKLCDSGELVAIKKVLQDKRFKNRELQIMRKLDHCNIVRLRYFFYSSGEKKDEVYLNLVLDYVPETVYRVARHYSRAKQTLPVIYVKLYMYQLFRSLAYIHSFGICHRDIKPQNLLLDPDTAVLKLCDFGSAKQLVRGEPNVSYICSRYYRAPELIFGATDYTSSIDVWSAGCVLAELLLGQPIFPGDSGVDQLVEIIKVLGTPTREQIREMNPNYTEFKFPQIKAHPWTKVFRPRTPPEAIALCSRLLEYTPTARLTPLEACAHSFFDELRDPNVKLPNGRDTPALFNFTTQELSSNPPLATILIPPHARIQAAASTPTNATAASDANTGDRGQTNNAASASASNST

SMILES	IC50 [nM]
CC(=O)Nc1cccc(C(=O)Nc2c[nH]nc2C(=O)NCCS(=O)(=O)c2ccc(Cl)cc2)c1 [Example 383, 4-((3-(acetylamino)benzoyl)amino)-N-(2-((4-chlorophenyl)sulfonyl)ethyl)-1H-pyrazole-3-carboxamide]	< 100
O=C(Nc1c[nH]nc1C(=O)NCCc1ccccc1)c1cnccn1 [Example 141]	< 100
CCOCC(=O)Nc1c[nH]nc1C(=O)NC1CCCC1 [compound 064]	< 100
COc1ccc(C(=O)Nc2c[nH]nc2C(=O)NCc2ccco2)cc1 [compound 155]	< 100
O=C(Nc1c[nH]nc1C(=O)Nc1ccccc1)c1cnccn1 [compound 098]	< 100
CC(=O)Nc1c[nH]nc1C(=O)NC(C)C [compound 017]	< 100
CC(C)NC(=O)c1n[nH]cc1NC(=O)C1CCCCC1 [compound 020]	< 100
O=C(Nc1c[nH]nc1C(=O)NC1CCCC1)c1ccc(C(F)(F)F)cc1 [compound 071]	< 100
O=C(Nc1c[nH]nc1C(=O)NCCNc1ccccn1)c1ccccn1 [Example 397, N-(3-(((2-(pyridin-2-ylamino)ethyl)amino)carbonyl)-1H-pyrazol-4-yl)pyridine-2-carboxamide]	< 100
O=C(Nc1c[nH]nc1C(=O)NCc1ccccc1)c1ccccn1 [Example 337, N-(3-((benzylamino)carbonyl)-1H-pyrazol-4-yl)pyridine-2-carboxamide]	< 100
O=C(NC1CCCC1)c1n[nH]cc1NC(=O)c1c[nH]c2ccccc12 [compound 078]	< 100
N#CCCNC(=O)c1n[nH]cc1NC(=O)c1cccc(C#N)c1 [Example 417, N-(2-cyanoethyl)-4-(3-cyanobenzoylamino)-1H-pyrazole-3-carboxamide]	< 100
O=C(NCc1ccccc1)c1n[nH]cc1NC(=O)C1CCCCC1 [Example 102, N-benzyl-4-[(cyclohexylcarbonyl)amino]-1H-pyrazole-3-carboxamide]	< 100
O=C(Nc1c[nH]nc1C(=O)NCCc1ccccc1)c1ccc(C(F)(F)F)cc1 [Example 132, N-(2-phenylethyl)-4-{[4-(trifluoromethyl)ben-zoyl]-amino}-1H-pyrazole-3-carboxamide]	101
CC(C)OCCCNC(=O)c1n[nH]cc1NC(=O)c1ccccn1 [Example 353, N-(3-(((3-isopropoxypropyl)amino)carbonyl)-1H-pyrazol-4-yl)pyridine-2-carboxamide]	< 100
O=C(Nc1c[nH]nc1C(=O)Nc1ccccc1)c1ccccn1 [Example 341, N-(3-(anilinocarbonyl)-1H-pyrazol-4-yl)pyridine-2-carboxamide]	< 100
O=C(Nc1c[nH]nc1C(=O)NCc1ccco1)c1ccccc1 [compound 152]	< 100
CC(=O)Nc1cccc(C(=O)Nc2c[nH]nc2C(=O)NCCC#N)c1 [Example 372, 4-((3-(acetylamino)benzoyl)amino)-N-(2-cyanoethyl)-1H-pyrazole-3-carboxamide]	< 100
CNC(=O)c1n[nH]cc1NC(=O)C1CCCCC1 [compound 005]	307
O=C(Nc1c[nH]nc1C(=O)NCc1ccco1)c1ccccn1 [Example 347, N-(3-(((2-furylmethyl)amino)carbonyl)-1H-pyrazol-4-yl)pyridine-2-carboxamide]	< 100
O=C(Nc1c[nH]nc1C(=O)NCc1ccccc1)c1ccc(Oc2ccccc2)cc1 [Example 114, N-benzyl-4-[(4-phenoxybenzoyl)amino]-1H-pyrazole-3-carboxamide]	394
CCOCC(=O)Nc1c[nH]nc1C(=O)NCc1ccccc1 [Example 103, N-benzyl-4-[(ethoxyacetyl)amino]-1H-pyrazole-3-carboxamide]	< 100
N#CCCNC(=O)c1n[nH]cc1NC(=O)C1CCCC1 [Example 411, N-(2-cyanoethyl)-4-((cyclopentylcarbonyl)amino)-1H-pyrazole-3-carboxamide]	< 100
CC(C)OCCNC(=O)c1n[nH]cc1NC(=O)c1ccccn1 [Example 357, N-(3-(((2-isopropoxyethyl)amino)carbonyl)-1H-pyrazol-4-yl)pyridine-2-carboxamide]	< 100
O=C(Cc1c[nH]c2ccccc12)Nc1c[nH]nc1C(=O)NCCc1ccccc1 [Example 130, 4-[(1H-indol-3-ylacetyl)amino]-N-(2-phenylethyl)-1H-pyrazole-3-carboxamide]	128
CC(=O)Nc1cccc(C(=O)Nc2c[nH]nc2C(=O)NC(C)C)c1 [compound 034]	< 100
CC(=O)Nc1cccc(C(=O)Nc2c[nH]nc2C(=O)NCC(=O)c2ccccc2)c1 [Example 374, 4-((3-(acetylamino)benzoyl)amino)-N-(2-oxo-2-phenylethyl)-1H-pyrazole-3-carboxamide]	< 100
CC(C)NC(=O)c1n[nH]cc1NS(=O)(=O)C[C@]12CCC(CC1=O)C2(C)C [compound 197]	109
COCCNC(=O)c1n[nH]cc1NC(=O)c1cccc(NC(C)=O)c1 [Example 370, 4-((3-(acetylamino)benzoyl)amino)-N-(2-methoxyethyl)-1H-pyrazole-3-carboxamide]	< 100

Continued, values first:

IC50 [nM]	SMILES
300	O=C(Nc1c[nH]nc1C(=O)NC1CCc2ccccc21)c1ccccn1 (stereo not shown) [Example 340]
< 100	CC(C)NC(=O)c1n[nH]cc1NC(=O)c1cnccn1 [compound 037]
271	O=C(Nc1c[nH]nc1C(=O)NCc1ccco1)c1ccc(C(F)(F)F)cc1 [compound 154]
< 100	O=C(COc1ccccc1)Nc1c[nH]nc1C(=O)NCCc1ccccc1 [Example 123, 4-[(phenoxyacetyl)amino]-N-(2-phenylethyl)-1H-pyrazole-3-carboxamide]
< 100	CCOCC(=O)Nc1c[nH]nc1C(=O)Nc1ccccc1 [compound 085]
< 100	CC(C)NC(=O)c1n[nH]cc1NC(=O)c1ccc(OC(F)(F)F)cc1 [compound 035]
208	CC1(C)C2CC[C@@]1(CS(=O)(=O)Nc1c[nH]nc1C(=O)NC1CCCC1)C(=O)C2 [compound 240]
< 100	O=C(Nc1c[nH]nc1C(=O)NCc1ccc(-c2ccccc2)cc1)c1ccccn1 [Example 354, N-(3-(((biphenyl-4-ylmethyl)amino)carbonyl)-1H-pyrazol-4-yl)pyridine-2-carboxamide]
1000	Cc1[nH]nc(C(=O)NC2CCCC2)c1NC(=O)c1ccccc1 [Example 378, 4-(benzoylylamino)-N-cyclopentyl-5-methyl-1H-pyrazole-3-carboxamide]
< 100	CC(C)NC(=O)c1n[nH]cc1NC(=O)CCc1ccccc1 [compound 024]
< 100	CC(=O)Nc1cccc(C(=O)Nc2c[nH]nc2C(=O)NCCOC(C)C)c1 [Example 371, 4-((3-(acetylamino)benzoyl)amino)-N-(2-isopropoxyethyl)-1H-pyrazole-3-carboxamide]
< 100	O=C(Nc1c[nH]nc1C(=O)NCc1ccccc1)c1ccc(F)cc1F [Example 113, N-benzyl-4-[(2,4-difluorobenzoyl)amino]-1H-pyrazole-3-carboxamide]
169	CC(C)NC(=O)c1n[nH]cc1NC(=O)Cc1c[nH]c2ccccc12 [compound 026]
242	O=C(CCc1ccccc1)Nc1c[nH]nc1C(=O)NCc1ccccc1 [Example 106, N-benyzl-4-[(3-phenylpropanoyl)amino]-1H-pyrazole-3-carboxamide]
< 100	O=C(Nc1ccccc1)c1n[nH]cc1NC(=O)c1c[nH]c2ccccc12 [compound 097]
< 100	O=C(Nc1c[nH]nc1C(=O)NCCc1ccccc1)c1ccccc1 [Example 131, 4-benzoylamino-N-(2-phenylethyl)-1H-pyrazole-3-carboxamide]
379	O=C(Cc1c[nH]c2ccccc12)Nc1c[nH]nc1C(=O)Nc1ccccc1 [compound 089]
< 100	O=C(Nc1c[nH]nc1C(=O)NCCc1ccccc1)c1ccc(Oc2ccccc2)cc1 [Example 135, 4-[(4-phenoxybenzoyl)amino]-N-(2-phenylethyl)-1H-pyrazole-3-carboxamide]
< 100	CC(=O)Nc1c[nH]nc1C(=O)NCCc1ccccc1 [Example 120, 4-acetylamino-N-(2-phenylethyl)-1H-pyrazole-3-carboxamide]
194	O=C(Nc1c[nH]nc1C(=O)NCc1ccco1)c1ccc(OC(F)(F)F)cc1 [compound 160]
